Reference: patent US7687603B2, “Guanidinium delivery carriers” (priority 2005, dated 2010)
Numbered stars: 1 amine (or outer) side, 2 acyl side, 3 side chain; on linkers, the order of the positions; unused ones are H or OH. Side chains are listed from the residue outwards. Peptide text beside a SMILES is read from it. * marks the point of attachment. Doxorubicin(3'-N) = COc1cccc2c1C(=O)c1c(O)c3c(c(O)c1C2=O)C[C@@](O)(C(=O)CO)C[C@@H]3O[C@H]1C[C@H](N*)[C@H](O)[C@H](C)O1; Suc = O=C(CCC(=O)[*:2])[*:1]

What was measured:
B16F0 cells [1] = assay: IC50% study; type: cell-based
Procedure: B16F0 cells (obtained from American Type Culture Collection, ATCC) were split into 96 well plates and incubated at 37° C. under 5% CO2. After 24 hours, BMPC-Pt was added to each well. The fluorescence of each well was measured using two wavelength filters (450 nm and 528 nm) before and several times after BMPC-Pt was added (24, 48, and 72 hours). Using measurements, the fluorescence intensity net increase ratio was calculated and the results are summarized in Table 3 and shown in FIGS. 19 and 20.

B16F0 cells [2] = assay: IC50% study; type: cell-based; details: 96 hours
[3] = Body weight changes after intra-tumor administration; type: in vivo, nu/nu athymic mice; details: 21 days after intra-tumor administration
Procedure: (§1) Male nu/nu athymic mice (6-7 weeks old; 22-25 g; available from Charles River Laboratories) were inoculated subcutaneously on the right flank with 1.1×10^6 Hela and PC-3 cells to obtain xenografs of human PC-3 prostate cancer.
(§2) Approximately 4 days after inoculation, the four groups of five mice were administered a solution containing saline, doxorubicin, PTD, or DOX-PTD (e.g., 0.103×10^−4 mol) via intra-tumor injection or intravenously. The solution was administered once a week until the total volume administered equaled ˜50 μL/mouse. Size measurements of the tumor and the body weight of the mice were taken every other day. A saline solution was used as a control.

PC-3 cells = assay: Cytotoxicity assay, live/dead cell staining; type: cell-based
Procedure: Prostate cancer cell lines (PC-3 cells) were maintained in 12-F medium containing 10% fetal bovine serum, 100 units/mL penicillin and 100 μg/mL streptomycin at 37° C. under 5% CO2 and 100% humid condition. To avoid confluency due to the short doubling time (˜20 hrs), the cells were split every 3-4 days.
The PC-3 cells were plated in 6-well tissue culture plates (5×10^5 cells/well) and incubated overnight in 12-F medium with 10% FBS. For each well, an aliquot of 200 μl Doxorubicin-protein transduction domain (DOX-PTD) solution at same mole concentration (0.2 mg/per well) was added. The cells were then incubated at 37° C. in 5% CO2 for 2 hrs.
After incubation, the live and dead cells were counted using cell staining analysis according to the protocol provided by the manufacturer. The dead cells stain red while the live cells stain green. The green and red fluorescent signals from the cells were observed under a fluorescent microscope (Olympus, filter 570 nm-605). The percentage of live cells in the cultures was determined from counts of three fields.

MTT cytotoxicity study = type: cell-based; details: mammalian cells, FIG. 13, read-out: cells survived (viability)
Procedure: (§3) Cytotoxicity of PTD carriers were evaluated in mammalian cells using 3-[4,5 dimethylthiazol-2-yl]-2,5-diphenyltetrazolium bromide (MTT). After inducing cytotoxicity (˜4 hrs) by routine methods, 10 μl of MTT solution (5.0 mg/ml in PBS, Sigma) was added to each well, and incubated at 37° C. for 3 hrs. The medium was then removed and 200 μl dimethyl sulfoxide (DMSO) was added into each well to dissolve the formazan crystals produced by living cells. The absorbance of the solution was measured at 570 nm. Cell viabilities were calculated using the equation: Viability (%)={Abs570 (sample)/Abs570 control}. A control reaction was run under the same conditions except for the addition of Dox-PTD.

mammalian cells = assay: MTT cytotoxicity study; type: cell-based
Procedure: as §3

[4] = tested on: xenografs of human PC-3 prostate cancer; assay: DOX-PTD anti-tumor treatment in vivo study, tumor size; parameters: species or system nu/nu athymic mice; details: intra-tumor administration, Dosedox=0.2 mg/kg, FIGS. 14 and 15
Procedure: as §1, §2

Hela 705 cells = assay: Transduction assay (in vitro), fluorescence microscope; type: cell-based; details: 30 min at 37° C., Streptavidin-FITC, FIG. 4
Procedure: The transduction efficiency of compound 9 from Example 1 and compound 11 from Example 2 were analyzed. Hela 705 cells were seeded at 1.5×10^4/well in 96-well plate and cultured overnight (about 70% confluenced). The media was discarded and the cells rinsed with PBS. Biotin-labeled test compounds (dissolved in PBS, pH: 7.4) were applied to culture(s) and incubated for 30 min at 37° C. The media was carefully discarded and the cells rinsed with PBS. The cells were fixed in freshly prepared 4% paraformaldehyde for 10 min at 4° C. The cells were rinsed and incubated with a blocking reagent (10% BSA containing 0.5% Triton X-100 in PBS) for 30 min at 37° C. The cells were again rinsed with PBS and incubated with Streptavidin-FITC for 30 min at room temperature. The cells were then rinsed with PBS and observed under fluorescence microscope.
The transduction activity of the disulfide linked HA compounds 13 and 14 from Example 4 were tested on Hela 705 cells following the procedure as mentioned above. FITC conjugated anti-HA antibody was applied for visualization.

Mouse skin tissue = assay: In vivo transdermal delivery assay; details: nude mice skin, 100 μl of 1 mM in PBS, 30 min, FIG. 9
Procedure: Compounds 9 and 11 from Examples 1 and 2 were tested in vivo. In vivo evaluation was conducted with a transdermal delivery assay on nude mice (NU/NU ♀). Nude mice (female, 6 weeks old, from Charles River) were anesthetized with 50 μl cocktail of Ketaset 25 mg/ml, Xylazine 5 mg/ml (i.m.). The skin was wiped with saline and a 100 μl solution of the test compounds (1 mM in PBS) was applied. A plastic ring was used to isolate the test solution and vaseline was rubbed outside of the ring. After 30 min incubation, the animal was sacrificed under deep anesthesia and the skin was removed. Mouse skin tissue was immediately embedded in OTC medium, cut into 5 μm on a cryostat and collected on slides, and stored at −70° C. The tissue was fixed in freshly prepared 4% paraformaldehyde in PBS for 10 min at 4° C. The tissue was then rinsed in PBS 2×5 min and incubated with 10% BSA containing 0.5% Triton X-100 in PBS for 30 min at 37° C. The samples were incubated with Streptavidin-FITC (diluted in 1% BSA containing 0.05% Triton X-100 in PBS) overnight at 4° C. […] The samples were rinsed twice in PBS 2×5 min and tap water and mounted with anti-fading mounting medium and observed under fluorescence microscope or confocal imaging analysis.

With `CC(=O)N[C@@H](CCCNC(=N)N)C(=O)N[C@@H](CCCNC(=N)N)C(=O)N[C@@H](CCCCNC(=O)[C@H](CCCNC(=N)N)NC(=O)[C@H](CCCNC(=N)N)NC(=O)CCC(=O)NC1CC(=O)[O][Pt]2([NH]C3CCCCC3[NH]2)[O]C1=O)C(=O)N[C@@H](CCCNC(=N)N)C(=O)N[C@@H](CCCNC(=N)N)C(=O)N[C@@H](CCCNC(=N)N)C(=O)N[C@@H](CCCNC(=N)N)C(N)=O` (some centres unmarked) [BMPC-Pt] the IC50 (B16F0 cells [1]; 24 hours) was 128 µM, the IC50 (B16F0 cells [1]; 48 hours) was 51.6 µM and the IC50 (B16F0 cells [1]; 72 hours) was 22.3 µM. The IC50 (B16F0 cells [2]) was 12.5 µM.
Work on `N.N.O=C([O-])C1(C(=O)[O-])CCC1.[Pt+2]` [Carboplatin, reference compound] yielded an IC50 (B16F0 cells [1]; 24 hours) of 110 µM, an IC50 (B16F0 cells [1]; 48 hours) of 36.5 µM and an IC50 (B16F0 cells [1]; 72 hours) of 24.5 µM. For the same molecule, the IC50 (B16F0 cells [2]) was 4.5 µM.
For `COc1cccc2c1C(=O)c1c(O)c3c(c(O)c1C2=O)C[C@@](O)(C(=O)CO)C[C@@H]3O[C@H]1C[C@H](N)[C@H](O)[C@H](C)O1` [DOX, doxorubicin, reference compound], the “body weight difference between groups” value [3] was “no significant difference”.
With `COc1cccc2c1C(=O)c1c(O)c3c(c(O)c1C2=O)C[C@@](O)(C(=O)CO)C[C@@H]3O[C@H]1C[C@H](NC(=O)CCC(=O)N[C@@H](CCCNC(=N)N)C(=O)N[C@@H](CCCNC(=N)N)C(=O)NCCCC[C@H](NC(=O)[C@H](CCCNC(=N)N)NC(=O)[C@H](CCCNC(=N)N)NC(C)=O)C(=O)N[C@@H](CCCNC(=N)N)C(=O)N[C@@H](CCCNC(=N)N)C(=O)N[C@@H](CCCNC(=N)N)C(=O)N[C@@H](CCCNC(=N)N)C(N)=O)[C@H](O)[C@H](C)O1` [DOX-PTD] (Ac-RRK([Arg-Arg-Suc-Doxorubicin(3'-N)])RRRR-NH2) the “number of live cells” value (PC-3 cells; 0.2 mg/per well, 2 hrs, FIGS. 11 and 12) was “less than with Dox alone”, the “penetration into the PC-3 cells” value (PC-3 cells; inferred from live cell counts) was “greater penetration into the PC-3 cells compared to Dox alone” and the viability (MTT cytotoxicity study) was < 40%. For the same molecule, the cytotoxicity (mammalian cells) was “extremely high”, the tumor size [4] was “increased in size less than the tumor injected with Dox alone” and the “body weight difference between groups” value [3] was “no significant difference”.
In the case of `N=C(N)NCCCC(N)C(=O)NC(CCCNC(=N)N)C(=O)NC(CCCNC(=N)N)C(=O)NCCCCC(NC(=O)C(CCCNC(=N)N)NC(=O)C(CCCNC(=N)N)NC(=O)C(N)CCCNC(=N)N)C(=O)NCCCCC(NC(=O)C(CCCNC(=N)N)NC(=O)C(CCCNC(=N)N)NC(=O)CCCC[C@@H]1SC[C@@H]2NC(=O)N[C@@H]21)C(N)=O` (some centres unmarked) [compound 11], the “transduction efficiency compared to vehicle (PBS)” value (Hela 705 cells) is reported as “dramatic transduction efficiency” and the “transdermal delivery efficiency compared to vehicle (PBS)” value (Mouse skin tissue) is reported as “dramatic transdermal delivery efficiency”.
